EP4678638A1, “NEW E3 UBIQUITIN LIGASE LIGAND, PROTEIN DEGRADATION AGENT AND USE THEREOF” (priority 2023, dated 2024)

Experiments:
[1] = biological target: T1, RSK1 (Homo sapiens, UniProt Q15418); assay: Western blot degradation of RSK1 (hPBMC); type: cell-based; settings: Table D8
T1 construct: evaluate the effects of the compounds of the present disclosure on the expression of target proteins in cells; endogenous in cells; host or cells: hPBMC
Method: (§1) Conventional Western blot assay was performed to evaluate the effects of the compounds of the present disclosure on the expression of target proteins in cells.
(§2) (1) Cell Seeding and Protein Harvesting: The selected cells were processed according to the cell seeding procedure and protein harvesting procedure in Table III-2. Table III-2 Cell Seeding and Protein Harvesting Procedures
(§3) (2) To the collected supernatant, 5X SDS sample loading buffer was added, followed by denaturation at 95°C for 5 minutes. The denatured samples were then separated by SDS-PAGE electrophoresis on a polyacrylamide gel. Proteins were transferred to a nitrocellulose membrane (0.45 µm NC membrane), blocked with blocking buffer at room temperature for 1 hour, and subjected to antibody incubation and development procedures according to the antibody manufacturer's instructions (Cell Signaling Technology).
(§4) Half-Maximal Degradation Concentration value (the drug concentration required for degrading proteins by 50%, abbreviated as DC50) reads method: comparing the grayscale values of Western blot bands from drug-treated samples with those from blank DMSO-treated controls, and identifying the drug concentration range at which the grayscale value is half that of the DMSO-treated control bands.
(§5) DC50 values can be calculated using ImageJ software to measure grayscale values of Western blot bands from drug-treated samples. The concentration-response curve is fitted to estimate the drug concentration corresponding to half the grayscale value.
(§6) Target protein remaining (%) refers to the percentage of target protein remaining in hPBMC cells after treatment with protein degrader compounds.
(§7) Calculation method for target protein remaining (%): Use ImageJ software to measure grayscale values of Western blot bands from drug (protein degrader)-treated samples. The grayscale value of drug-treated bands is divided by that of internal control protein bands, and the resulting quotient is normalized to obtain the relative percentage of remaining target protein after protein degrader treatment.
(§8) Target protein degradation rate (%) = 100% - target protein remaining (%).

[2] = biological target: T2, RSK2 (Homo sapiens, UniProt P51812); assay: Western blot degradation of RSK2 (hPBMC); type: cell-based; settings: Table D8
T2 construct: evaluate the effects of the compounds of the present disclosure on the expression of target proteins in cells; endogenous in cells; host or cells: hPBMC
Method: as §1, §2, §3, §4, §5, §6, §7, §8

T2 sequence (P51812 whole entry): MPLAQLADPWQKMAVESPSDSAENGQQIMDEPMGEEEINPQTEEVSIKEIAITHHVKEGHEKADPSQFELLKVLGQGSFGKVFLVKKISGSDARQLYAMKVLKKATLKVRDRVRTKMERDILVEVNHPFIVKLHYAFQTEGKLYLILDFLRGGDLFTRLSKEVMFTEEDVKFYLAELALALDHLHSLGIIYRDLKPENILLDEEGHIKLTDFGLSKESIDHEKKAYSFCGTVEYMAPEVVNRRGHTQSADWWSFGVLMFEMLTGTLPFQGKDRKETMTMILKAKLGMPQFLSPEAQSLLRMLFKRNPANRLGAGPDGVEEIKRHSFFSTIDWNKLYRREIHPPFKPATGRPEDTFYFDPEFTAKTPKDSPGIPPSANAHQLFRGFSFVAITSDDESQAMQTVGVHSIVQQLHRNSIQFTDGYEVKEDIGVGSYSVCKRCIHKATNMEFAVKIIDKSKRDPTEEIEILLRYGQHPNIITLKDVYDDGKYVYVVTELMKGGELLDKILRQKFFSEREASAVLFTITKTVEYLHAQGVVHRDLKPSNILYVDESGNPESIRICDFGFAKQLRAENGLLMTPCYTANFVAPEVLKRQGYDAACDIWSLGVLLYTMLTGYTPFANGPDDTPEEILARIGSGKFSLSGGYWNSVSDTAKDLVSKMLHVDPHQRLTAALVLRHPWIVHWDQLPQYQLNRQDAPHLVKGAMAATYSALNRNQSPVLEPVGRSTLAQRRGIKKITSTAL
T1 sequence (Q15418 whole entry): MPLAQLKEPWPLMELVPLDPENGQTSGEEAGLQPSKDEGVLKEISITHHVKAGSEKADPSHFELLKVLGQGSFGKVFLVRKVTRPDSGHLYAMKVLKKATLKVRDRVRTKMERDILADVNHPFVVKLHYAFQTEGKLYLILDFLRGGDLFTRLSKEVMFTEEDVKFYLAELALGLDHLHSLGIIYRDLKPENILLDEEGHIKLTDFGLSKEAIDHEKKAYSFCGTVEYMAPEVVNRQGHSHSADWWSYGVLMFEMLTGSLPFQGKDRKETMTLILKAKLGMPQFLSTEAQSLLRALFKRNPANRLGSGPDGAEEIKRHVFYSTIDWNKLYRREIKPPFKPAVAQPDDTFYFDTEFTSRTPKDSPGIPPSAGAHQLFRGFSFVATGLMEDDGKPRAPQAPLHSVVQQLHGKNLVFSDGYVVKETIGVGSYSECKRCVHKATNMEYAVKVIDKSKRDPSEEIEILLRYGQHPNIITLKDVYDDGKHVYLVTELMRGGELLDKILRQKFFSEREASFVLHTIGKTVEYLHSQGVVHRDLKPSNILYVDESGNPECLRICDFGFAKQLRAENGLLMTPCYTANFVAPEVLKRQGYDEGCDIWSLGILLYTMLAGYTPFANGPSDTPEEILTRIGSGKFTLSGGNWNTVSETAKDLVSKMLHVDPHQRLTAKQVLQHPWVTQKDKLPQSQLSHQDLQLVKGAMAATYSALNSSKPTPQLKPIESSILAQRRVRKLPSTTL

Row | SMILES | Degradation of substrate protein RSK1 (substrate protein remaining %) [1] | Degradation of substrate protein RSK2 (substrate protein remaining %) [2]
1 | C[C@@H]1CNC(=O)c2cc3ccc(C(=O)Nc4cnn(Cc5ccc(N6CCC(N(C)Cc7ccnc(N8CCC(=O)NC8=O)c7)CC6)cc5)c4)nc3n21 [GT-07944, (R)-N-(1-(4-(4-(((2-(2,4-dioxotetrahydropyrimidin-1(2H)-yl)pyridin-4-yl)methyl)(methyl)amino)piperidin-1-yl)benzyl)-1H-pyrazol-4-yl)-9-methyl-6-oxo-6,7,8,9-tetrahydropyrido[3',2':4,5]py rrolo[1,2-a]pyrazine-2-carboxamide] | A (A is defined as 0% ≤ substrate protein remaining % ≤ 80%) | A (A is defined as 0% ≤ substrate protein remaining % ≤ 80%)
2 | C[C@@H]1CNC(=O)c2cc3ccc(C(=O)Nc4cnn(Cc5ccc(N6CCC(N(C)Cc7cncc(N8CCC(=O)NC8=O)c7)CC6)cc5)c4)nc3n21 [GT-07945, (R)-N-(1-(4-(4-(((5-(2,4-dioxotetrahydropyrimidin-1(2H)-yl)pyridin-3-yl)methyl)(methyl)amino)piperidin-1-yl)benzyl)-1H-pyrazol-4-yl)-9-methyl-6-oxo-6,7,8,9-tetrahydropyrido[3',2':4,5]py rrolo[1,2-a]pyrazine-2-carboxamide] | A (A is defined as 0% ≤ substrate protein remaining % ≤ 80%) | A (A is defined as 0% ≤ substrate protein remaining % ≤ 80%)
3 | C[C@@H]1CNC(=O)c2cc3ccc(C(=O)Nc4cnn(Cc5ccc(N6CCC(N(C)Cc7ccnc(C8CCC(=O)NC8=O)c7)CC6)cc5)c4)nc3n21 (stereo partly drawn) [GT-07947, (9R)-N-(1-(4-(4-(((2-(2,6-dioxopiperidin-3-yl)pyridin-4-yl)methyl)(methyl)amino)piperidin-1-yl)benzyl)-1H-pyrazol-4-yl)-9-methyl-6-oxo-6,7,8,9-tetrahydropyrido[3',2':4,5]py rrolo[1,2-a]pyrazine-2-carboxamide] | A (A is defined as 0% ≤ substrate protein remaining % ≤ 80%) | A (A is defined as 0% ≤ substrate protein remaining % ≤ 80%)
4 | C[C@@H]1CNC(=O)c2cc3ccc(C(=O)Nc4cnn(Cc5ccc(N6CCC(N(C)Cc7cncc(C8CCC(=O)NC8=O)c7)CC6)cc5)c4)nc3n21 (stereo partly drawn) [GT-07948, (9R)-N-(1-(4-(4-(((5-(2,6-dioxopiperidin-3-yl)pyridin-3-yl)methyl)(methyl)amino)piperidin-1-yl)benzyl)-1H-pyrazol-4-yl)-9-methyl-6-oxo-6,7,8,9-tetrahydropyrido[3',2':4,5]py rrolo[1,2-a]pyrazine-2-carboxamide] | A (A is defined as 0% ≤ substrate protein remaining % ≤ 80%) | A (A is defined as 0% ≤ substrate protein remaining % ≤ 80%)
5 | C[C@@H]1CNC(=O)c2cc3ccc(C(=O)Nc4cnn(Cc5ccc(N6CCC(N(C)Cc7cc(N8CCC(=O)NC8=O)cnc7F)CC6)cc5)c4)nc3n21 [GT-07949, (R)-N-(1-(4-(4-(((5-(2,4-dioxotetrahydropyrimidin-1(2H)-yl)-2-fluoropyridin-3-yl)methyl)(methyl)amino)piperidin-1-yl)benzyl)-1H-pyrazol-4-yl)-9-methyl-6-oxo-6,7,8,9-tetrahydropyrido[3',2':4,5]py rrolo[1,2-a]pyrazine-2-carboxamide] | A (A is defined as 0% ≤ substrate protein remaining % ≤ 80%) | A (A is defined as 0% ≤ substrate protein remaining % ≤ 80%)
6 | C[C@@H]1CNC(=O)c2cc3ccc(C(=O)Nc4cnn(Cc5ccc(N6CCC(N(C)Cc7cnc(N8CCC(=O)NC8=O)cn7)CC6)cc5)c4)nc3n21 [GT-07950, (R)-N-(1-(4-(4-(((5-(2,4-dioxotetrahydropyrimidin-1(2H)-yl)pyrazin-2-yl)methyl)(methyl)amino)piperidin-1-yl)benzyl)-1H-pyrazol-4-yl)-9-methyl-6-oxo-6,7,8,9-tetrahydropyrido[3',2':4,5]py rrolo[1,2-a]pyrazine-2-carboxamide] | A (A is defined as 0% ≤ substrate protein remaining % ≤ 80%) | A (A is defined as 0% ≤ substrate protein remaining % ≤ 80%)
7 | C[C@@H]1CNC(=O)c2cc3ccc(C(=O)Nc4cnn(Cc5ccc(N6CCC(N7CCN(Cc8ccc(C9CCC(=O)NC9=O)cc8)CC7)CC6)cc5)c4)nc3n21 (stereo partly drawn) [GT-07951, (9R)-N-(1-(4-(4-(4-(4-(2,6-dioxopiperidin-3-yl)benzyl)piperazin-1-yl)piperidin-1-yl)benzyl)-1H-pyrazol-4-yl)-9-methyl-6-oxo-6,7,8,9-tetrahydropyrido[3',2':4,5]py rrolo[1,2-a]pyrazine-2-carboxamide] | A (A is defined as 0% ≤ substrate protein remaining % ≤ 80%) | A (A is defined as 0% ≤ substrate protein remaining % ≤ 80%)
8 | C[C@@H]1CNC(=O)c2cc3ccc(C(=O)Nc4cnn(Cc5ccc(N6CCC(N7CCN(Cc8ccc(N9CCC(=O)NC9=O)cc8)CC7)CC6)cc5)c4)nc3n21 [GT-07952, (R)-N-(1-(4-(4-(4-(4-(2,4-dioxotetrahydropyrimidin-1(2H)-yl)benzyl)piperazin-1-yl)piperidin-1-yl)benzyl)-1H-pyrazol-4-yl)-9-methyl-6-oxo-6,7,8,9-tetrahydropyrido[3',2':4,5]pyrrolo[1,2-a]pyrazine-2-carboxamide] | A (A is defined as 0% ≤ substrate protein remaining % ≤ 80%) | A (A is defined as 0% ≤ substrate protein remaining % ≤ 80%)
9 | C[C@@H]1CNC(=O)c2cc3ccc(C(=O)Nc4cnn(Cc5ccc(N6CCC(N7CCN(Cc8ccc(N9CCC(=O)NC9=O)nc8)CC7)CC6)cc5)c4)nc3n21 [GT-07955, (R)-N-(1-(4-(4-(4-((6-(2,4-dioxotetrahydropyrimidin-1(2H)-yl)pyridin-3-yl)methyl)piperazin-1-yl)piperidin-1-yl)benzyl)-1H-pyrazol-4-yl)-9-methyl-6-oxo-6,7,8,9-tetrahydropyrido[3',2':4,5]pyrrolo[1,2-a]pyrazine-2-carboxamide] | A (A is defined as 0% ≤ substrate protein remaining % ≤ 80%) | A (A is defined as 0% ≤ substrate protein remaining % ≤ 80%)
10 | C[C@@H]1CNC(=O)c2cc3ccc(C(=O)Nc4cnn(Cc5ccc(N6CCC(N7CCN(Cc8cccc(NC9CCC(=O)NC9=O)c8)CC7)CC6)cc5)c4)nc3n21 (stereo partly drawn) [GT-07956, (9R)-N-(1-(4-(4-(4-(3-((2,6-dioxopiperidin-3-yl)amino)benzyl)piperazin-1-yl)piperidin-1-yl)benzyl)-1H-pyrazol-4-yl)-9-methyl-6-oxo-6,7,8,9-tetrahydropyrido[3',2':4,5]pyrrolo[1,2-a]pyrazine-2-carboxamide] | A (A is defined as 0% ≤ substrate protein remaining % ≤ 80%) | A (A is defined as 0% ≤ substrate protein remaining % ≤ 80%)
11 | C[C@@H]1CNC(=O)c2cc3ccc(C(=O)Nc4cnn(Cc5ccc(N6CCC(N7CCN(Cc8cc(N9CCC(=O)NC9=O)ncc8F)CC7)CC6)cc5)c4)nc3n21 [GT-07957, (R)-N-(1-(4-(4-(4-((2-(2,4-dioxotetrahydropyrimidin-1(2H)-yl)-5-fluoropyridin-4-yl)methyl)piperazin-1-yl)piperidin-1-yl)benzyl)-1H-pyrazol-4-yl)-9-methyl-6-oxo-6,7,8,9-tetrahydropyrido[3',2':4,5]pyrrolo[1,2-a]pyrazine-2-carboxamide] | A (A is defined as 0% ≤ substrate protein remaining % ≤ 80%) | A (A is defined as 0% ≤ substrate protein remaining % ≤ 80%)
12 | C[C@@H]1CNC(=O)c2cc3ccc(C(=O)Nc4cnn(Cc5ccc(N6CCC(N7CCN(Cc8ccnc(N9CCC(=O)NC9=O)c8)CC7)CC6)cc5)c4)nc3n21 [GT-07958, (R)-N-(1-(4-(4-(4-((2-(2,4-dioxotetrahydropyrimidin-1(2H)-yl)pyridin-4-yl)methyl)piperazin-1-yl)piperidin-1-yl)benzyl)-1H-pyrazol-4-yl)-9-methyl-6-oxo-6,7,8,9-tetrahydropyrido[3',2':4,5]pyrrolo[1,2-a]pyrazine-2-carboxamide] | A (A is defined as 0% ≤ substrate protein remaining % ≤ 80%) | A (A is defined as 0% ≤ substrate protein remaining % ≤ 80%)
